Values joined by “and” are separate entries in the source; they are usually repeats but may differ in a detail not shown here. Equal entries are not always repeated. “Also recorded” adds a separate entry of the source. Where two headings read alike, the source gives them in different places.
What was measured:
[1] = design: species or system New Zealand White rabbits; settings: rabbit, in vivo; for antibody titers to the immunizing peptide (ELISA): sc
[2] = design: species or system mice; settings: mouse, in vivo
[3] = test system: PBMC stimulated with SEB; format: cell-based, human; settings: 72 hours
[4] = test system: PBMC stimulated with SEC; format: cell-based, human; settings: 72 hours
[5] = test system: PBMC stimulated with SED; format: cell-based, human; settings: 72 hours
[6] = test system: PBMC stimulated with SPEC; format: cell-based, human; settings: 72 hours
[7] = test system: PBMC stimulated with SPEA; format: cell-based, human; settings: 72 hours
[8] = test system: PBMC stimulated with TSST-1; format: cell-based, human; settings: 72 hours
[9] = test system: PBMC stimulated with SPEG; format: cell-based, human; settings: 72 hours
[10] = test system: PBMC stimulated with SPEH; format: cell-based, human; settings: 72 hours
[11] = test system: PBMC stimulated with SPEZ; format: cell-based, human; settings: 72 hours
[12] = test system: purified MHC class II molecules; format: binding
[13] = target: SEB (Staphylococcus aureus, UniProt P01552); settings: mouse, in vivo
[14] = target: SPEA (Streptococcus pyogenes phage T12, UniProt P0DJY8); settings: mouse, in vivo
[15] = target: TSST-1 (Staphylococcus aureus, UniProt P06886); settings: mouse, in vivo
Sequence of TSST-1 (P06886 41-234 limits assumed): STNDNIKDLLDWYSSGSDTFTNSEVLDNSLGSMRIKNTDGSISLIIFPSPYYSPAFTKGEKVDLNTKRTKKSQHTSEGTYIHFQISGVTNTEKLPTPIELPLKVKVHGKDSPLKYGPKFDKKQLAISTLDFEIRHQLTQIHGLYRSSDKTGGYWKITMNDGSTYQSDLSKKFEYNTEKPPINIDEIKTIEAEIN

Sequence of SPEA (P0DJY8 31-251): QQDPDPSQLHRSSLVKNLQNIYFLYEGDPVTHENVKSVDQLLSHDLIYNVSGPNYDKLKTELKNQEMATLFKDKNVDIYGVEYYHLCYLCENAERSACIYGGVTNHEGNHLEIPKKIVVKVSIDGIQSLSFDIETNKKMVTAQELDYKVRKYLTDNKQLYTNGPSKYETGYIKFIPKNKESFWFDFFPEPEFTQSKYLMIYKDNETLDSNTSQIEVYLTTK
Sequence of SEB (P01552 28-266 limits assumed): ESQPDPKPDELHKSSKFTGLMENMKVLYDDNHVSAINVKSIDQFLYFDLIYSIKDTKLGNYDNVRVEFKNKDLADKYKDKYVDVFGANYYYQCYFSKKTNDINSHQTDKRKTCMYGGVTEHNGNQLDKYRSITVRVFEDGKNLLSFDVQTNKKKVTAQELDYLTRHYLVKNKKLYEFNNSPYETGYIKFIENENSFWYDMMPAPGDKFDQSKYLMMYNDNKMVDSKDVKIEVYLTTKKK

With CMYGGVTEHEGN [peptide 6343] the “induction of detectable antibodies” value [1] was “does not induce detectable antibodies”, the “induction of detectable antibodies” value [2] was “does not induce detectable antibodies” and the “inhibition of blastogenesis (tritiated thymidine incorporation)” value [3] was “inhibited blastogenesis”. For the same substance, the “inhibition of blastogenesis, dose response” value [3] was “dose-response inhibition of blastogenesis”, the “inhibitory activity of SEB compared with peptide 6346 or peptide 6348” value [3] was “more inhibitory activity” and the “inhibition of blastogenesis (tritiated thymidine incorporation)” value [4] was “inhibited blastogenesis”. For the same substance, the “inhibition of blastogenesis (tritiated thymidine incorporation)” value [5] was “inhibited blastogenesis”, the “inhibition of blastogenesis (tritiated thymidine incorporation)” value [6] was “inhibited blastogenesis” and the “inhibition of blastogenesis (tritiated thymidine incorporation)” value [7] was “inhibited blastogenesis”. For the same substance, the “inhibition of blastogenesis (tritiated thymidine incorporation)” value [8] was “inhibited blastogenesis”, the “inhibition of blastogenesis (tritiated thymidine incorporation)” value [9] was “inhibited blastogenesis” and the “inhibition of blastogenesis (tritiated thymidine incorporation)” value [10] was “inhibited blastogenesis”. For the same substance, the “inhibition of blastogenesis (tritiated thymidine incorporation)” value [11] was “inhibited blastogenesis”, the “binding to the MHC complex” value [12] was “binds very strongly” and the “competition for the site of SEB binding on MHC (decreased anti-SEB antibody binding)” value [12] was “able to compete effectively; also recorded: decreased anti-SEB binding at increased concentrations”. The “Alive/Total SEB” value [13] was 5 out of 6 and 5/6 (83%), the “Alive/Total SEB, percent alive” value [13] was 5/6 (83%) and the “Alive/Total SPEA” value [14] was 2 out of 2 and 2/2 (100%). For the same substance, the “Alive/Total SPEA, percent alive” value [14] was 2/2 (100%), the “Alive/Total TSST-1” value [15] was 2 out of two and 2/2 (100%) and the “Alive/Total TSST-1, percent alive” value [15] was 2/2 (100%).
In the case of “CGKKNVTVQELDYKIRKYLVDNKKLYGC* [peptide 6346]”, the “antibody titers to the immunizing peptide (ELISA)” value (from here on “antibody titers”) [1] is reported as “high titers”.
With CMYGGVTEHEGNGC* [compound 6344] the “antibody titers” value [1] was “high titers”.
With “CMYGGVTEHEGNKKNVTVQELDYKIRKYLVDNKKLYGC* [peptide 6348]” the “antibody titers” value [1] was “high titer antibodies; also recorded: significant antibody titers”.

Reference: patent US7115268B1, “Peptides useful for reducing symptoms of toxic shock syndrome and septic shock” (The Rockefeller University, priority 1997, dated 2006)
